Assay results as given in US20080214518A1, “Pharmaceutical Composition Comprising an Anti-Bacterial Agent and an Active Ingredient Selected From Carveol, Thymol, Eugenol, Borneol and Carvacrol” (priority 2005, published 2008).
Like-named read-outs stand apart in the source and are kept apart here.

Legend:
Assay type in all cases: cell-based
Escherichia coli = assay: Static tests to determine MIC and MBC
Method: (§1) The experiment was carried out with several Gram-negative and Gram-positive bacterial strains with different susceptibilities isolated in the hospital environment.
(§2) Antibacterial pharmaceutical compositions according to the invention were prepared by mixing amoxicillin at different concentrations with carveol at a sub-inhibitory concentration of 0.3 g per liter of solution or excipient (equivalent to 0.3 mg/ml). The minimal concentration of amoxicillin in combination with carveol 0.3 mg/ml that produced a bactericidal effect was determined. In each case, antibiotic activity was determined either with amoxicillin alone, or with carveol alone, or with the composition of the invention.
(§3) The experiment was carried out with several resistant bacterial strains isolated in the hospital environment. The antibiotic used was ampicillin, from the beta-lactam family, which is one of the most widely used antibiotics. An antibiotic pharmaceutical composition according to the invention was prepared by mixing ampicillin at different concentrations with carveol at a sub-inhibitory concentration of 0.3 g per liter of solution or excipient. This pharmaceutical composition of the invention was named Ampi-P, for potentiated ampicillin. In each case, antibiotic activity was determined either with ampicillin alone, or with carveol alone, or with the composition of the invention.
(§4) The experiment was carried out with several resistant bacterial strains isolated in the hospital environment. The antibiotic used was cephazolin, from the cephalosporin family, another class of beta-lactams which are among the most widely used antibiotics. An antibiotic pharmaceutical composition according to the invention was prepared by mixing cephazolin at different concentrations with alpha-ionone and beta-ionone at a sub-inhibitory concentration of 0.3 g per liter of solution or excipient. This pharmaceutical composition of the invention was named Cepha-P, for potentiated cephazolin. In each case, antibiotic activity was determined either with cephazolin alone, or with alpha-ionone or beta-ionone alone, or with the composition of the invention.
as §3, with “polymyxin B,” for “ampicillin,”, “peptide” for “beta-lactam”, “oldest” for “most widely used”, “polymyxin B” for “ampicillin”, “Polymix-P,” for “Ampi-P,”, “polymyxin B.” for “ampicillin.”
as §3, with “chloramphenicol,” for “ampicillin,”, “phenicol” for “beta-lactam”, “oldest” for “most widely used”, “chloramphenicol” for “ampicillin”, “Chloram-P,” for “Ampi-P,”, “chloramphenicol.” for “ampicillin.”
(§5) The experiment was carried out with several resistant bacterial strains isolated in the hospital environment. The antibiotic used was chlortetracycline, one of the oldest antibiotics. An antibiotic pharmaceutical composition according to the invention was prepared by mixing chlortetracycline at different concentrations with carveol at a sub-inhibitory concentration of 0.3 g per liter of solution or excipient.

Salmonella typhimurium = assay: Static tests to determine MIC and MBC
Method: as §1, §2, §3, §4
as §3, with “polymyxin B,” for “ampicillin,”, “peptide” for “beta-lactam”, “oldest” for “most widely used”, “polymyxin B” for “ampicillin”, “Polymix-P,” for “Ampi-P,”, “polymyxin B.” for “ampicillin.”
as §3, with “chloramphenicol,” for “ampicillin,”, “phenicol” for “beta-lactam”, “oldest” for “most widely used”, “chloramphenicol” for “ampicillin”, “Chloram-P,” for “Ampi-P,”, “chloramphenicol.” for “ampicillin.”
as §5

Bacillus subtilis = assay: Static tests to determine MIC and MBC
Method: as §1, §2, §3, §4
as §3, with “polymyxin B,” for “ampicillin,”, “peptide” for “beta-lactam”, “oldest” for “most widely used”, “polymyxin B” for “ampicillin”, “Polymix-P,” for “Ampi-P,”, “polymyxin B.” for “ampicillin.”
as §3, with “chloramphenicol,” for “ampicillin,”, “phenicol” for “beta-lactam”, “oldest” for “most widely used”, “chloramphenicol” for “ampicillin”, “Chloram-P,” for “Ampi-P,”, “chloramphenicol.” for “ampicillin.”
as §5

[1] = test system: Staphylococcus epidermidis; assay: Static tests to determine MIC and MBC
Method: as §1
Antibacterial pharmaceutical compositions according to the invention were prepared by mixing amoxicillin at different concentrations with carveol at a sub-inhibitory concentration of 0.3 g per liter of solution or excipient (equivalent to 0.3 mg/ml). The minimal concentration of amoxicillin in combination with carveol 0.3 mg/ml that produced a bactericidal effect was determined. In each case, antibiotic activity was determined either with amoxicillin alone, or with carveol alone, or with the composition of the invention. […]

Klebsiella pneumoniae = assay: Static tests to determine MBC; conditions: carveol alone, Table 1
Method: as §1, §2

Staphylococcus aureus = assay: Static tests to determine MIC and MBC; conditions: carveol alone
Method: as §1, §2
(§6) The experiment was carried out with several resistant bacterial strains isolated in the hospital environment. The antibiotic used was chlortetracycline, one of the oldest antibiotics. An antibiotic pharmaceutical composition according to the invention was prepared by mixing chlortetracycline at different concentrations with carveol at a sub-inhibitory concentration of 0.3 g per liter of solution or excipient. […] In each case, antibiotic activity was determined either with chlortetracycline alone, or with carveol alone, or with the composition of the invention.
as §6, with “streptomycin, an important member” for “chlortetracycline, one”, “aminoside family which is among the most important” for “oldest”, “streptomycin” for “chlortetracycline”
as §6, with “erythromycin, an important member” for “chlortetracycline, one”, “macrolide family which is among the most important” for “oldest”, “erythromycin” for “chlortetracycline”

[2] = first substance alone, exponential growth phase

Measured: MBC

C=C(C)C1CC=C(C)C(O)C1 (mixture of isomers) [Carveol, carveol]
2000 µg/mL: Escherichia coli; Escherichia coli, carveol alone, Table 1, read-out: MBC | Escherichia coli; [2] | Salmonella typhimurium; Salmonella enterica, TYPHIMURIUM, carveol alone, Table 1, read-out: MBC | Salmonella typhimurium; [2] | Bacillus subtilis; Bacillus subtilis, carveol alone, Table 1, read-out: MBC | Bacillus subtilis; [2] | [1]; Staphylococcus epidermidis, carveol alone, Table 1, read-out: MBC | [1]; [2] | Klebsiella pneumoniae | Staphylococcus aureus; Staphylococcus aureus, Table 1, read-out: MBC | Staphylococcus aureus; exponential growth phase
